What follows are molecules tested against T1, recombinant Axl tyrosine kinase (Homo sapiens, UniProt P30530) (assay: In vitro Axl kinase assay (AlphaScreen), Test (a)). Conditions: 1 μM; mean calculated from a larger number of replicates than the first value.
T1 construct: encompassing amino acids 473 to 894 of Axl; GST (N); made in house; host or cells: SF126 insect cells
T1 sequence (P30530 473-894): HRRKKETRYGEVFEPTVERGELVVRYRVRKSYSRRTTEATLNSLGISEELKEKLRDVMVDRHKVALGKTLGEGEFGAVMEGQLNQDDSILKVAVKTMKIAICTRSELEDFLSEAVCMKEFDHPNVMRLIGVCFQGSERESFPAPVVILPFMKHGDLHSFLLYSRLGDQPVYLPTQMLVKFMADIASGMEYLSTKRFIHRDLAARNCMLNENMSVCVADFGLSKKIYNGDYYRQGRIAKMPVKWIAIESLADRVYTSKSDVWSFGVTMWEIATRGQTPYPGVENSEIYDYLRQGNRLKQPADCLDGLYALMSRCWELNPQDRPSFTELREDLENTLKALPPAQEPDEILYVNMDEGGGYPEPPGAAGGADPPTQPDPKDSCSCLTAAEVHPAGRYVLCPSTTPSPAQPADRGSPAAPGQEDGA
Assay type: biochemical
Protocol: Test compounds were prepared as 10 mM stock solutions in dimethylsulphoxide (DMSO) and diluted in DMSO as required. Aliquots (120 nl) of compound dilutions were filled into the wells of a Greiner 384-well low volume (LV) white polystyrene plate (Greiner Bio-one) using acoustic dispensing (Labcyte Echo 550). A 10 μl mixture of recombinant purified Axl enzyme, biotinylated peptide substrate (Biotin poly-GAT; CisBio, Catalogue No. 61GATBLB), 0.2 μM adenosine triphosphate (ATP) and a buffer solution [comprising 20 mM Tris-HCl pH 7.5 buffer, 0.01% v/v Tween, 5 mM dithiothreitol (DTT) and 10 mM manganese chloride] was incubated with the compounds at room temperature for 20 minutes.
Control wells that produced a minimum signal corresponding to 100% inhibited enzyme were created by adding 10 μM of Staurosporine.
The percentage kinase inhibition value is the percentage of Axl tyrosine kinase activity inhibited by the test compound at a concentration of 1 μM.

Compound | % Axl tyrosine kinase inhibition at 1 μM concentration (second value, †)
Nc1ncc(-c2cccc(N3CCOCC3)c2)cc1-c1nc2ncccc2o1 [Example 10A.1] | 52.6%
Nc1ncc(-c2ccc(CN3CCOCC3)cc2)cc1-c1nc2ccncc2o1 [Example 11A.1] | 99.4%

Same assay, conditions: 1 μM; mean calculated from a larger number of replicates than the first value; read-out: % Axl tyrosine kinase inhibition at 1 μM concentration (second value, †)

Compound | inhibition at 1 µM
CC(C)(C)OC(=O)N1CCC(n2cc(-c3cnc(N)c(-c4nc5ccccc5s4)c3)cn2)CC1 [Example 13, tert-butyl 4-[4-[6-Amino-5-(1,3-benzothiazol-2-yl)-3-pyridyl]pyrazol-1-yl]piperidine-1-carboxylate] | 99%
CC(C)(C)OC(=O)N1CCC(n2cc(-c3cnc(N)c(-c4nc5ccccc5o4)n3)cn2)CC1 [Example 15, Tert-butyl 4-[4-[5-amino-6-(1,3-benzoxazol-2-yl)pyrazin-2-yl]pyrazol-1-yl]piperidine-1-carboxylate] | 99.4%

Same assay, conditions: test compound at 1 μM; first value quoted

Compound | % Axl tyrosine kinase inhibition at 1 μM concentration
Nc1ncc(-c2cccc(CN3CCCC3)c2)cc1-c1nc2cccnc2o1 [Example 9A.8] | 96.5%
Nc1ncc(-c2cccc(CN3CCCCC3)c2)cc1-c1nc2cccnc2o1 [Example 9A.9] | 95.3%
CN(C)CCCNC(=O)c1ccc(-c2cnc(N)c(-c3nc4cccnc4o3)c2)cc1 [Example 9A.11] | 98.8%
NCc1ccc(-c2cnc(N)c(-c3nc4cccnc4o3)c2)cc1 [Example 9A.13] | 98.3%
Nc1ncc(-c2ccc(S(=O)(=O)NCCO)cc2)cc1-c1nc2cccnc2o1 [Example 9A.14] | 97.0%
N#CCc1ccc(-c2cnc(N)c(-c3nc4cccnc4o3)c2)cc1 [Example 9A.16] | 97.7%
Nc1ncc(-c2cccc(C(=O)NC3CC3)c2)cc1-c1nc2cccnc2o1 [Example 9A.17] | 73.2%
CN1CCN(C(=O)c2cccc(-c3cnc(N)c(-c4nc5cccnc5o4)c3)c2)CC1 [Example 9A.18] | 80.8%
Nc1ncc(-c2ccc(CO)s2)cc1-c1nc2cccnc2o1 [Example 9A.19] | 95.6%
Nc1ncc(-c2ccc(CN3CCOCC3)cc2)cc1-c1nc2cccnc2o1 [Example 9A.21] | 95.6%
Nc1ncc(-c2cccc(C(=O)NCCN3CCOCC3)c2)cc1-c1nc2cccnc2o1 [Example 9A.22] | 81.9%
Nc1ncc(-c2cccc(N3CCOCC3)c2)cc1-c1nc2ncccc2o1 [Example 10A.1] | 55.3%
Nc1ncc(-c2cccc(C(=O)NCCN3CCOCC3)c2)cc1-c1nc2ncccc2o1 [Example 10A.2] | 63.9%
CC(C)(C)OC(=O)N1CCC(C(=O)Nc2cccc(-c3cnc(N)c(-c4nc5ncccc5o4)c3)c2)CC1 [Example 10A.3] | 87.2%
NCc1ccc(-c2cnc(N)c(-c3nc4ncccc4o3)c2)cc1 [Example 10A.4] | 99.0%
Nc1ncc(-c2ccc(C(=O)NCCO)cc2)cc1-c1nc2ncccc2o1 [Example 10A.5] | 91.4%
Nc1ncc(-c2cccc(C(=O)NC3CC3)c2)cc1-c1nc2ncccc2o1 [Example 10A.6] | 37.8%
Nc1ncc(-c2cccc(CN3CCCC3)c2)cc1-c1nc2ncccc2o1 [Example 10A.7] | 95.9%
CN1CCN(C(=O)c2cccc(-c3cnc(N)c(-c4nc5ncccc5o4)c3)c2)CC1 [Example 10A.8] | 57.4%

Compound | % Axl tyrosine kinase inhibition at 1 μM concentration
Nc1ncc(-c2cccc(C(=O)NCCN3CCCC3)c2)cc1-c1nc2ncccc2o1 [Example 10A.9] | 82.5%
Nc1ncc(-c2cccc(S(=O)(=O)NC3CC3)c2)cc1-c1nc2ncccc2o1 [Example 10A.10] | 90.0%
Nc1ncc(-c2cccc(CN3CCCCC3)c2)cc1-c1nc2ncccc2o1 [Example 10A.11] | 88.4%
CN(C)CCCNC(=O)c1ccc(-c2cnc(N)c(-c3nc4ncccc4o3)c2)cc1 [Example 10A.12] | 99.0%
Nc1ncc(-c2ccc(C(=O)N3CCC(O)CC3)cc2)cc1-c1nc2ncccc2o1 [Example 10A.13] | 91.1%
Nc1ncc(-c2ccc(C(=O)N3CCOCC3)cc2)cc1-c1nc2ncccc2o1 [Example 10A.14] | 92.7%
COCc1cccc(-c2cnc(N)c(-c3nc4ncccc4o3)c2)c1 [Example 10A.16] | 99.9%
Nc1ncc(-c2cccc(N3CCCCC3)c2)cc1-c1nc2ncccc2o1 [Example 10A.17] | 40.3%
CN(C)CCNC(=O)c1cccc(-c2cnc(N)c(-c3nc4ncccc4o3)c2)c1 [Example 10A.18] | 84.7%
Nc1ncc(-c2ccc(CO)s2)cc1-c1nc2ncccc2o1 [Example 10A.19] | 90.1%
Nc1ncc(-c2ccc(CN3CCOCC3)cc2)cc1-c1nc2ccncc2o1 [Example 11A.1] | 99.6%
Nc1ncc(-c2ccc(C(=O)N3CCC(O)CC3)cc2)cc1-c1nc2ccncc2o1 [Example 11A.2] | 97.5%
CC(C)(C)OC(=O)N1CCC(C(=O)Nc2cccc(-c3cnc(N)c(-c4nc5ccncc5o4)c3)c2)CC1 [Example 11A.3] | 87.7%
Nc1ncc(-c2cccc(CN3CCCC3)c2)cc1-c1nc2ccncc2o1 [Example 11A.5] | 97.4%
Nc1ncc(-c2cccc(N3CCCCC3)c2)cc1-c1nc2ccncc2o1 [Example 11A.6] | 90.0%
Nc1ncc(-c2cccc(C(=O)NC3CC3)c2)cc1-c1nc2ccncc2o1 [Example 11A.7] | 80.3%
CNS(=O)(=O)c1cccc(-c2cnc(N)c(-c3nc4ccncc4o3)c2)c1 [Example 11A.8] | 39.6%
CC(C)(C)OC(=O)NCc1cccc(-c2cnc(N)c(-c3nc4ccncc4o3)c2)c1 [Example 11A.9] | 99.3%
Nc1ncc(-c2cccc(N3CCOCC3)c2)cc1-c1nc2ccncc2o1 [Example 11A.12] | 93.7%

Same assay, conditions: test compound at 1 μM; first value quoted; read-out: % Axl tyrosine kinase inhibition at 1 μM concentration

Compound | inhibition at 1 µM
Nc1ncc(-c2cnn(C3CCNCC3)c2)cc1-c1nc2ncccc2o1 [Example 10, 3-Oxazolo[4,5-b]pyridin-2-yl-5-[1-(4-piperidyl)pyrazol-4-yl]pyridin-2-amine] | 98.8%
CN(C)CCNC(=O)c1ccc(-c2cnc(N)c(-c3nc4ncccc4o3)c2)cc1 [Example 10A.15, 4-(6-amino-5-oxazolo[4,5-b]pyridin-2-yl-3-pyridyl)-N-(2-dimethylaminoethyl)benzamide] | 98.4%
Nc1ncc(-c2cnn(C3CCNCC3)c2)cc1-c1nc2ccncc2o1 [Example 11, 3-Oxazolo[5,4-c]pyridin-2-yl-5-[1-(4-piperidyl)pyrazol-4-yl]pyridin-2-amine] | 99%
C[N+]1([O-])CCC(n2cc(-c3cnc(N)c(-c4nc5ccccc5o4)c3)cn2)CC1 (stereo not drawn) [Example 12, 3-(1,3-Benzoxazol-2-yl)-5-[1-(1-methyl-1-oxido-piperidin-1-ium-4-yl)pyrazol-4-yl]pyridin-2-amine] | 90.6%
CC(C)(C)OC(=O)N1CCC(n2cc(-c3cnc(N)c(-c4nc5ccccc5s4)c3)cn2)CC1 [Example 13, tert-butyl 4-[4-[6-Amino-5-(1,3-benzothiazol-2-yl)-3-pyridyl]pyrazol-1-yl]piperidine-1-carboxylate] | 95.4%
CC(C)(C)OC(=O)N1CCC(n2cc(-c3cnc(N)c(-c4nc5ccccc5o4)n3)cn2)CC1 [Example 15, Tert-butyl 4-[4-[5-amino-6-(1,3-benzoxazol-2-yl)pyrazin-2-yl]pyrazol-1-yl]piperidine-1-carboxylate] | 93.1%
CN1CCC(n2cc(-c3cnc(N)c(-c4nc5ccccc5s4)c3)cn2)CC1 [Example 16, 3-(1,3-Benzothiazol-2-yl)-5-[1-(1-methyl-4-piperidyl)pyrazol-4-yl]pyridin-2-amine] | 99.8%
Nc1ncc(-c2cnn(C3CCNCC3)c2)nc1-c1nc2ccccc2o1 [Example 17, 3-(1,3-Benzoxazol-2-yl)-5-[1-(4-piperidyl)pyrazol-4-yl]pyrazin-2-amine] | 99.6%
Nc1ncc(-c2cnn(C3CCNCC3)c2)nc1-c1nc2ccc(F)cc2o1 [Example 17A.1, 3-(6-fluoro-1,3-benzoxazol-2-yl)-5-[1-(4-piperidyl)pyrazol-4-yl]pyrazin-2-amine] | 98.5%
